Test results: US20030050302A1, “Treatment of conditions associated with amyloid processing using PKC activators” (Neurologic, Inc., priority 2000, published 2003)

Key:
PKC α isoform [1] = target: T1, PKC α isoform (Homo sapiens, UniProt P17252); experiment: Immunoblot of PKC α translocation cytosol to membrane in AC cell lines; assay type: cell-based; design: endogenous in cells; host or cells: human skin fibroblast lines from AC controls; conditions: AC cells, 50 nM
Experimental: (§1) Cells were grown to confluency (˜90%) in t-75 flasks. […] Fibroblasts were washed twice with ice-cold PBS, scraped in PBS, and collected by low-speed centrifugation. The pellets were resuspended in the following homogenization buffer: 20 mM Tris-HCl, pH 7.5, 2 mM EDTA, 2 mM EGTA, 5 mM DTT, 0.32 M sucrose, 2 mM PMSF, 25 μg/ml leupeptin. Homogenates were immersed in liquid nitrogen, thawed, and centrifuged at 12,000 g for 20 minutes, and the supernatants were used as the cytosolic fraction. The pellets were homogenized in the same buffer containing 1.0% Triton X-100, incubated in ice for 45 minutes, and centrifuged at 12,000 g for 30 minutes. The supernatant from this batch was used as the membranous fraction. […] The membrane was saturated with Blotto blocker (Pierce) by incubating it at RT for an hour. The primary antibody for PKC α isoform (Transduction Laboratories) was diluted (1:1000) in blocking solution and incubated with the membrane for 1 hour at RT. After incubation with the secondary antibody, alkaline phosphatasae antimouse IgG (Vector Laboratories), the membrane was developed using an alkaline phosphatase kit (Vector Laboratories) as per the manufacturer's instructions. The conditions for developing the membranes were kept as similar as possible. […]

[2] = system: 113 pS TEA-sensitive K+ channel; experiment: Patch-clamp single-channel recording in AD cell line AG06848; assay type: cell-based, human
Experimental: Patch-claim experiments were performed on 13 separate replicate representative experiments in a well-characterized AD cell line (AG06848) which is normally silent for the 113 pS TEA-sensitive K^+ channel (Etcheberrigaray et al., 1993). The experiment was performed at room temperature (21-23° C.) following standard procedures (Sakmann & Neher, 1983). The culture medium was replaced with the following solution (mM, NaCl 150, KCl 5, CaCl2 2, MgCl2 1, Hepes (NaOH) 10, pH 7.4, prior to recording. Benzolactam was added to a dish after ensuring that the patch is silent for the II 3 pS K^+ channel. The recording electrodes, filled with a high-K^+ solution (mM), KCl 140, CaCl2 2, MgCl2 1, Hepes (NaOH) 10, pH 7.4, were made from Blu Tip capillary tubes (i.d. 1.1-1.2 mm; Oxford Labware) by using a BB-CH-PC Mecanex puller to obtain pipette resistances that were ˜6 MΩ. An Axopath-IC amplifier was used to obtain records and a JVC Vetter PCM videorecorder was used to store the data on tape. The data were acquired and analyzed on a personal computer with a pClamp suite of programs by transferring the information via an Axolab interface from the amplifier. All three components-amplifier, interface, and software-were obtained from Axon Instruments (Foster City, Calif.).

[3] = rats, personal communication; cited from earlier work
PKC δ = PKC δ (Homo sapiens, UniProt Q05655); conditions: δ isoform vs α; cited from earlier work
PKC ε = target: T2, PKC ε (Homo sapiens, UniProt Q02156); conditions: ε isoform vs α; cited from earlier work
T2 sequence (Q02156 1-737): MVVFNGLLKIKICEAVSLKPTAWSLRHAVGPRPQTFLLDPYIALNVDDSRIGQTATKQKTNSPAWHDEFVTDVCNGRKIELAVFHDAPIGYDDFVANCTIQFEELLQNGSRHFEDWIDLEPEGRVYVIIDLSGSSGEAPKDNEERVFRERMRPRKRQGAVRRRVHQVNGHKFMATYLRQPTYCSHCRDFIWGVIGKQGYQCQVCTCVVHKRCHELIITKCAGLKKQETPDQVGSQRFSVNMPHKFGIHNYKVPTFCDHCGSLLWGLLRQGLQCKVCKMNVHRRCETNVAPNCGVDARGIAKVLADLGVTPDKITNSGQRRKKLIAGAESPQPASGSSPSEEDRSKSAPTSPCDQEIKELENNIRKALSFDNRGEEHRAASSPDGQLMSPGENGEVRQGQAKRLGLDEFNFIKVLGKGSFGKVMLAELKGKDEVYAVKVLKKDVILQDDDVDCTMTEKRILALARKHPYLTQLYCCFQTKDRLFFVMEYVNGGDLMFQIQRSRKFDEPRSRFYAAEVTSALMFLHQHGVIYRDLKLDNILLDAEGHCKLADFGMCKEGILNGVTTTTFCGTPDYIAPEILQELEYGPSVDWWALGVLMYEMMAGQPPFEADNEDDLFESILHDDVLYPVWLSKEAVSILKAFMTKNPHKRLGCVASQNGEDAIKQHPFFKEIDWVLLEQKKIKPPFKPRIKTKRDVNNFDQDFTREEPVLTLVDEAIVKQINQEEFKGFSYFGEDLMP

[4] = system: fibroblasts from AD patients; experiment: TEA-induced [Ca2+] elevation (calcium imaging) in AD fibroblasts
Experimental: (§2) The culture medium in which cells were grown was Dulbecco's modified Eagle's medium (GIBCO) supplemented with 10% fetal calf serum (Biofluids, Inc.).
(§3) Round, 25-mm glass coverslips were flame-polished and placed inside 35-mm Nunc petri dishes. Cells were seeded (ca. 10-15 cells/mm^2) in these petri dishes and used when cell density was equivalent for all cell lines (ca 180 cells/mm^2). […] Briefly, culture medium was removed and cells were washed at least three times with basal salt solution (BSS; in mM: NaCl 140, KCl 5, CaCl2 2.5, MgCl2 1.5, Hepes 10, glucose 5, pH 7.4). The fluorescent probe was loaded by incubating cells in 1 μM fura 2-AM (Molecular Probes) in 1 ml BSS at room temperature (RT). One hour later, cells were washed thoroughly with BSS and 1 ml of fresh BSS was added for [Ca^2+] baseline measurements. […] A 40× Zeiss Fluor (oil immersion) objective lens was used.
A group of cells was treated with the PKC activator benzolactam prior to the TEA challenge. BL was dissolved in dimethyl sulfoxide (DMSO; Sigma) to achieve a final testing concentration of 50 nM when 1 ml of the dissolved BL was added to the dish 1 minute prior to TEA application. […] Seven to ten petri dishes of cells were tested from each cell line for each experimental condition. In almost all the cell lines, a minimum of 100 cells were tested per treatment per cell line (total 9231 cells). There were only three AC cell lines for which the number of cells in a couple of treatment groups was above 65 but below 100. Experiments for each cell line were repeated on at least one separate occasion (minimum 1-week interval). Response in a given cell was characterized as a double-fold increase in baseline [Ca^2+]

sAPP [5] = experiment: sAPP secretion in PC12 cells (immunoblot densitometry); conditions: for sAPP secretion vs basal level: 10 μM
Experimental: (§4) Human fibroblasts were obtained from the Coriell Cell Repositories (Camden N.J.). […] The culture medium was DMEM supplemented with 10% serum (FBS, Gibeo). PC12 cells were obtained from the American Cell Culture Collection and grown to confluence in T75 flasks containing DMEM supplemented with 5% FPS (Gibeo), 10% horse serum (Biofluids) and 1% of a mixture of penicillin (5000 units/ml in G sodium) and streptomycin (5000 μg/ml).
(§5) Complete culture medium was removed just prior to experiments.
(§6) After two hours of incubation, the supernatant was removed and the secreted proteins were precipitated with 10% TCA and resuspended in Tris-glycine SDS electrophoresis sample buffer (Novex). The samples were boiled for 5 min, subjected to electrophoresis and later to immunoblotting for identification of sAPP.
(§7) Conventional immunoblotting techniques were employed. […] The volume of sample loaded was corrected for total cell protein per flask. Proteins were transferred electrophoretically to nitrocellulose membranes. The membranes were saturated with Blotto blocker (Pierce) and incubated overnight at 4° C. with 1:500 6E10 monoclonal antibody from Senetek. After washing, the membranes were incubated for 1 h at room temperature with the secondary antibody, alkaline phosphatase anti-mouse. IfG (Vector Laboratories) and developed using a BCIP/NBT subtrate kit (Vector Laboratories). The bands were quantitated by densitometric analyses (NIH Image, version 1.6) after obtaining a digital image of each membrane.

PKC α isoform [6] = target: T1, PKC α isoform; experiment: Immunoblot of PKC α translocation cytosol to membrane in AD cell lines; assay type: cell-based; design: endogenous in cells; host or cells: human skin fibroblast lines from AD patients and AC controls; conditions: 50 nM
Experimental: as §1

sAPP [7] = experiment: sAPP secretion in AD fibroblasts (immunoblot densitometry)
Experimental: as §4, §5, §6, §7

[8] = system: age-matched control (AC) fibroblasts; experiment: TEA-induced [Ca2+] elevation (calcium imaging) in age-matched control (AC) fibroblasts; conditions: 50 nM, 1 minute
Experimental: as §2, §3
A group of cells was treated with the PKC activator benzolactam prior to the TEA challenge. BL was dissolved in dimethyl sulfoxide (DMSO; Sigma) to achieve a final testing concentration of 50 nM when 1 ml of the dissolved BL was added to the dish 1 minute prior to TEA application. […] Seven to ten petri dishes of cells were tested from each cell line for each experimental condition. In almost all the cell lines, a minimum of 100 cells were tested per treatment per cell line (total 9231 cells). […]

sAPP [9] = experiment: sAPP secretion in age-matched control fibroblasts (immunoblot densitometry)
Experimental: as §4, §5, §6, §7

Chain of PKC δ (Q05655 whole entry, canonical isoform): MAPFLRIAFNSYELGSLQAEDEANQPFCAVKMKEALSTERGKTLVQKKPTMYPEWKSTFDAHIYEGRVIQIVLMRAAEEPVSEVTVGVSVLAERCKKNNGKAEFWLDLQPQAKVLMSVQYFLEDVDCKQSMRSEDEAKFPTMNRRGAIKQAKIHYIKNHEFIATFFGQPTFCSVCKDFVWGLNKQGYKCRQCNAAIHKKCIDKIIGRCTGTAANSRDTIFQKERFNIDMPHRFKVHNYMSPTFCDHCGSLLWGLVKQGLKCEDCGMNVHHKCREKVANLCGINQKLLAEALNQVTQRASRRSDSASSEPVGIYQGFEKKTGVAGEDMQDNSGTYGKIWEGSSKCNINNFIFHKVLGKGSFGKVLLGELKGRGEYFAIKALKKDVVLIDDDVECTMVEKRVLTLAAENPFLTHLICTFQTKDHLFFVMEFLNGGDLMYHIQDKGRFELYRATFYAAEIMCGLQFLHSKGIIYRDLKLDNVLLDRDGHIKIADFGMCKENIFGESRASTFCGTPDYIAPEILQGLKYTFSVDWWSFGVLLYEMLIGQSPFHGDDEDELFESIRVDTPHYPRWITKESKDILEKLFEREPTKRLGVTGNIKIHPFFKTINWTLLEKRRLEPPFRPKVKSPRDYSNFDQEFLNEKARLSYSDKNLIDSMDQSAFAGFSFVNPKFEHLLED

## CCCCCCCCC#Cc1ccc2c(c1)C[C@@H](CO)NC(=O)[C@H](C(C)C)N2C [BL, (2S, 5S)-8-(1′-decynyl)benzolactam]
PKC α isoform [1]; 1 minute
  PKC translocation vs basal levels: ns
PKC α isoform [1]; 15 minutes
  PKC α particulate/soluble ratio: 1.72
[2]; AD cell line AG06848, 1 minute BL treatment
  K+ channel activity after BL activation: 54%
[2]; of 13 recordings silent before BL, 1 minute BL treatment
  cells showing unambiguous 113 pS K+ channel: 7
[3]
  antitumoral activity: shows antitumoral activity
PKC δ
  affinity lower than for PKC α: at least 10 fold
PKC ε
  affinity lower than for PKC α: at least 10 fold
[4]; AD cell lines, 50 nM, 1 minute
  percentage of cells responding to TEA vs untreated and DMSO-treated controls: significantly increased
[4]; AD cells treated with BL (50 nM, 1 minute) before 100 mM TEA
  percentage of cells responding to TEA: 19.58%
sAPP [5]
  sAPP secretion: ~3 fold
  sAPP secretion vs basal level: significantly increased
PKC α isoform [6]; 1 minute
  redistribution of PKC α from cytosol to membrane vs basal ratio: pronounced redistribution
PKC α isoform [6]; 15 minutes
  PKC α particulate/soluble ratio: 1.156
sAPP [7]; AD cell lines, 0.5 μM, 2 h
  sAPP secretion vs basal: did not reach statistical significance
sAPP [7]; AD cell lines, 1 μM, 2 h
  sAPP secretion vs basal, post test significance: significance level of p<0.001
sAPP [7]; AD cell lines, 10 μM, 2 h
  sAPP secretion over basal: almost three-fold increase
[8]
  percentage of response to TEA vs untreated or DMSO-treated cells: did not differ

## CCCCCCCCCCCC(=O)Oc1ccc([C@H]2[C@@H](C(C)C)C(=O)N[C@@H]2CO)c2ccccc12 [LQ12]
sAPP [5]
  sAPP secretion vs basal level: significantly increased

## CCCC(=O)O[C@@H]1[C@@H](C)[C@@]2(O)[C@@H](C=C(CO)C[C@]3(O)C(=O)C(C)=C[C@@H]23)[C@@H]2C(C)(C)[C@]12OC(=O)CCC [PDBu, phorbol 12,13-dibutyrate]
sAPP [9]; age-matched control cell lines, 0.5, 1 and 10 μM
  sAPP secretion vs basal: statistical significance was not reached
[4]; AD cells, 50 nM, 45 minutes
  TEA response vs 4α-PHR-treated cells: did not differ
[4]; AD cells, 1 and 15 minutes incubation
  TEA response, shorter incubation times: without effect
sAPP [7]; AD cell lines, 0.5 μM, 2 h
  sAPP secretion vs basal: maximal at 500 nM
sAPP [7]; AD cell lines, 0.5, 1 and 10 μM, 2 h
  sAPP secretion vs basal: statistically significant increases

## CN[C@@H]1C[C@H]2O[C@@](C)([C@@H]1OC)n1c3ccccc3c3c4c(c5c6ccccc6n2c5c31)C(=O)NC4 [staurosporine]
sAPP [9]; age-matched control cell lines
  sAPP secretion, staurosporine alone: without effect
sAPP [9]; age-matched control cell lines, 0.5 μM staurosporine pretreatment
  effect on increase in sAPP secretion caused by 10 μM BL: effective in preventing
sAPP [7]; AD cell lines, 0.5 μM staurosporine 30 min prior to BL
  effect on BL-induced sAPP secretion: completely prevented
sAPP [7]; staurosporine pretreatment, data not shown
  effect on phorbol (PDBu)-induced sAPP secretion: significantly reduced
